PubChem BioAssay (NCI)
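Protocol summary: plate cells (96-well), add compound at 5 concentrations, incubate 48 h, interpolate endpoints linearly. At the GI50, growth is halved. TGI is the concentration that stops growth completely.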

Experiments:
Assay in all cases: growth of human tumour cells (NCI), 48 h
SK-OV-3 ovarian = tested on: SK-OV-3 ovarian
786-0 renal = tested on: 786-0 renal
OVCAR-3 ovarian = tested on: OVCAR-3 ovarian
A549 NSCLC = tested on: A549 NSCLC
RXF 393 renal = tested on: RXF 393 renal
HL-60(TB) leukemia = tested on: HL-60(TB) leukemia
A498 renal = tested on: A498 renal
BT-549 breast = tested on: BT-549 breast
MDA-MB-231 breast = tested on: MDA-MB-231 breast
MCF7 breast = tested on: MCF7 breast

O=c1cc(-c2ccccn2)[nH]c2cccc(F)c12
TGI (SK-OV-3 ovarian): > 100 µM | TGI (786-0 renal): > 100 µM | TGI (OVCAR-3 ovarian): > 100 µM | TGI (A549 NSCLC): > 100 µM | TGI (RXF 393 renal): > 100 µM | TGI (HL-60(TB) leukemia): > 100 µM

N#C/C(=C1\SCC(=O)N1c1ccccc1)c1nc2ccccc2[nH]1
TGI (SK-OV-3 ovarian): > 100 µM | TGI (786-0 renal): > 100 µM | TGI (OVCAR-3 ovarian): > 100 µM | TGI (A498 renal): > 100 µM | TGI (A549 NSCLC): > 100 µM | TGI (RXF 393 renal): > 100 µM | TGI (HL-60(TB) leukemia): > 100 µM

C#CC1(O)CCC2C3CCc4cc(Oc5nc(F)nc(-c6c7ccccc7c7n6CCS7)n5)ccc4C3CC[C@@]21C (stereo partly specified)
TGI (786-0 renal): > 100 µM | TGI (OVCAR-3 ovarian): 32.2 µM | TGI (A549 NSCLC): > 100 µM | TGI (HL-60(TB) leukemia): 54.5 µM

C=C1C(=O)O[C@H]2[C@H]1CC/C(COC(=O)CCCCCC(=O)OC/C1=C/CC[C@@]3(C)O[C@H]3[C@H]3OC(=O)C(=C)[C@@H]3CC1)=C\CC[C@@]1(C)O[C@@H]21
GI50 (SK-OV-3 ovarian): 12 µM | TGI (SK-OV-3 ovarian): 31 µM | GI50 (786-0 renal): 1.09 µM | TGI (786-0 renal): 2.49 µM | GI50 (OVCAR-3 ovarian): 1.11 µM | TGI (OVCAR-3 ovarian): 2.38 µM | GI50 (A498 renal): 11.4 µM | TGI (A498 renal): 27.4 µM | GI50 (A549 NSCLC): 10.4 µM | TGI (A549 NSCLC): 23.8 µM | GI50 (BT-549 breast): 1.44 µM | TGI (BT-549 breast): 3.02 µM | GI50 (RXF 393 renal): 1.1 µM | TGI (RXF 393 renal): 2.41 µM | GI50 (HL-60(TB) leukemia): 0.694 µM | TGI (HL-60(TB) leukemia): 3.66 µM | GI50 (MDA-MB-231 breast): 1.68 µM | TGI (MDA-MB-231 breast): 3.62 µM

CCCn1c(SCCSc2c3ccccc3c(-c3nc(F)nc(F)n3)n2CCC)c2ccccc2c1-c1nc(F)nc(F)n1
TGI (SK-OV-3 ovarian): > 100 µM | TGI (786-0 renal): > 100 µM | TGI (OVCAR-3 ovarian): > 100 µM | TGI (A549 NSCLC): > 100 µM | TGI (RXF 393 renal): > 100 µM | TGI (HL-60(TB) leukemia): > 100 µM

O=C(O)C(Cc1cnc[nH]1)N1C(=O)c2ccccc2C1=O (stereo unspecified)
TGI (786-0 renal): > 100 µM | TGI (OVCAR-3 ovarian): > 100 µM | TGI (A498 renal): > 100 µM | TGI (A549 NSCLC): > 100 µM | TGI (BT-549 breast): > 100 µM | TGI (RXF 393 renal): > 100 µM | TGI (MCF7 breast): > 100 µM | TGI (MDA-MB-231 breast): > 100 µM

CC(C)N(C(=O)c1cccc(C(=O)N(C(C)C)C(C)C)c1)C(C)C
TGI (SK-OV-3 ovarian): > 100 µM | TGI (786-0 renal): > 100 µM | TGI (OVCAR-3 ovarian): > 100 µM | TGI (A498 renal): > 100 µM | TGI (A549 NSCLC): > 100 µM | TGI (HL-60(TB) leukemia): > 100 µM

[N-]=[N+]=NC(c1cn(C2CC(O)C(CO)O2)c(=O)[nH]c1=O)C(Cl)Br (stereo unspecified)
TGI (786-0 renal): > 100 µM | TGI (A549 NSCLC): > 100 µM | TGI (RXF 393 renal): > 100 µM | TGI (HL-60(TB) leukemia): > 100 µM

ClC(Cl)=C(Cl)C1(Cl)CC1COCc1ccccc1 (stereo unspecified)
TGI (SK-OV-3 ovarian): > 100 µM | TGI (786-0 renal): > 100 µM | TGI (OVCAR-3 ovarian): 68.2 µM | TGI (A498 renal): > 100 µM | TGI (A549 NSCLC): > 100 µM | TGI (RXF 393 renal): 59.6 µM | TGI (HL-60(TB) leukemia): 41.9 µM

CCO/C=C1\N=C(c2ccc(Cl)c(Cl)c2)OC1=O
TGI (786-0 renal): > 100 µM | TGI (OVCAR-3 ovarian): > 100 µM | TGI (A498 renal): > 100 µM | TGI (A549 NSCLC): > 100 µM | TGI (RXF 393 renal): > 100 µM | TGI (HL-60(TB) leukemia): > 100 µM

CNC(=O)NCC1OC(n2cnc3c(NC(=O)Nc4ccccc4)ncnc32)C(O[Si](C)(C)C(C)(C)C)C1O[Si](C)(C)C(C)(C)C (stereo unspecified)
GI50 (SK-OV-3 ovarian): 6.88 µM | TGI (SK-OV-3 ovarian): > 100 µM | GI50 (786-0 renal): 2.04 µM | TGI (786-0 renal): 3.71 µM | GI50 (OVCAR-3 ovarian): 2.6 µM | TGI (OVCAR-3 ovarian): 5.54 µM | GI50 (A498 renal): 2.03 µM | TGI (A498 renal): 4.96 µM | GI50 (A549 NSCLC): 2.9 µM | TGI (A549 NSCLC): 12.8 µM | GI50 (BT-549 breast): 2.94 µM | TGI (BT-549 breast): 8.18 µM | GI50 (RXF 393 renal): 2.14 µM | TGI (RXF 393 renal): 4.01 µM | GI50 (MCF7 breast): 2.69 µM | TGI (MCF7 breast): 19.4 µM | GI50 (MDA-MB-231 breast): 2.61 µM | TGI (MDA-MB-231 breast): 6.12 µM

O=S(=O)(NC1CCCCC1)c1ccc2c(c1)OCCOCCOCCOCCO2
TGI (SK-OV-3 ovarian): > 100 µM | TGI (786-0 renal): > 100 µM | TGI (A498 renal): > 100 µM | TGI (A549 NSCLC): > 100 µM | TGI (BT-549 breast): > 100 µM | TGI (MCF7 breast): > 100 µM | TGI (HL-60(TB) leukemia): > 100 µM | TGI (MDA-MB-231 breast): > 100 µM

C=CC(=O)N1C/C(=C\c2ccc(Cl)c(Cl)c2)C(=O)/C(=C/c2ccc(Cl)c(Cl)c2)C1
TGI (SK-OV-3 ovarian): 1.61 µM | TGI (786-0 renal): 0.194 µM | TGI (OVCAR-3 ovarian): 0.219 µM | TGI (A498 renal): 1.89 µM | TGI (RXF 393 renal): 0.299 µM

C=C1CC(CC)(CCN2C(=O)c3ccccc3C2=O)OC1=O (stereo unspecified)
TGI (786-0 renal): 24.2 µM | TGI (A498 renal): 36.8 µM | TGI (A549 NSCLC): > 100 µM | TGI (RXF 393 renal): 29.9 µM | TGI (HL-60(TB) leukemia): > 100 µM

COc1ccc2c(c1)/C(=C\c1ccncc1)C(=O)N2
GI50 (SK-OV-3 ovarian): 19.5 µM | TGI (SK-OV-3 ovarian): 79.9 µM | GI50 (786-0 renal): 12.5 µM | TGI (786-0 renal): 29.3 µM | GI50 (OVCAR-3 ovarian): 10.4 µM | TGI (OVCAR-3 ovarian): 27.5 µM | GI50 (A549 NSCLC): 17.3 µM | TGI (A549 NSCLC): 46.4 µM | GI50 (BT-549 breast): 12.5 µM | TGI (BT-549 breast): 32.4 µM | GI50 (MCF7 breast): 8.68 µM | TGI (MCF7 breast): > 100 µM | GI50 (HL-60(TB) leukemia): 6.8 µM | TGI (HL-60(TB) leukemia): > 100 µM | GI50 (MDA-MB-231 breast): 17.2 µM | TGI (MDA-MB-231 breast): 36.7 µM

Nc1ccn(C2CC(F)C(CO)O2)c(=O)n1 (stereo unspecified)
GI50 (SK-OV-3 ovarian): > 100 µM | TGI (SK-OV-3 ovarian): > 100 µM | GI50 (786-0 renal): > 100 µM | TGI (786-0 renal): > 100 µM | GI50 (OVCAR-3 ovarian): > 100 µM | TGI (OVCAR-3 ovarian): > 100 µM | GI50 (A549 NSCLC): > 100 µM | TGI (A549 NSCLC): > 100 µM | GI50 (BT-549 breast): > 100 µM | TGI (BT-549 breast): > 100 µM | GI50 (RXF 393 renal): > 100 µM | TGI (RXF 393 renal): > 100 µM | GI50 (MCF7 breast): > 100 µM | TGI (MCF7 breast): > 100 µM | GI50 (HL-60(TB) leukemia): > 100 µM | TGI (HL-60(TB) leukemia): > 100 µM | GI50 (MDA-MB-231 breast): > 100 µM | TGI (MDA-MB-231 breast): > 100 µM

Cc1cc2c(c(C(N)=O)c1C)-c1cccc(F)c1C2=O
TGI (SK-OV-3 ovarian): > 100 µM | TGI (786-0 renal): > 100 µM | TGI (OVCAR-3 ovarian): > 100 µM | TGI (A498 renal): > 100 µM | TGI (A549 NSCLC): > 100 µM

COc1ccc(/C=C(/c2ccccc2)[N+](=O)[O-])c(OC)c1
GI50 (SK-OV-3 ovarian): 3.1 µM | TGI (SK-OV-3 ovarian): 9.57 µM | GI50 (786-0 renal): 1.62 µM | TGI (786-0 renal): 3.16 µM | GI50 (OVCAR-3 ovarian): 1.69 µM | TGI (OVCAR-3 ovarian): 3.09 µM | GI50 (A498 renal): 1.55 µM | TGI (A498 renal): 2.99 µM | GI50 (A549 NSCLC): 2.32 µM | TGI (A549 NSCLC): 6.66 µM | GI50 (BT-549 breast): 1.48 µM | TGI (BT-549 breast): 2.89 µM | GI50 (RXF 393 renal): 1.53 µM | TGI (RXF 393 renal): 3.03 µM | GI50 (HL-60(TB) leukemia): 1.15 µM | TGI (HL-60(TB) leukemia): 5.25 µM | GI50 (MDA-MB-231 breast): 2 µM | TGI (MDA-MB-231 breast): 4.16 µM

C/C(CC(=O)Nc1cccc(Cl)c1C)=N\NC(N)=S
TGI (SK-OV-3 ovarian): > 100 µM | TGI (786-0 renal): > 100 µM | TGI (OVCAR-3 ovarian): > 100 µM | TGI (A498 renal): > 100 µM | TGI (A549 NSCLC): > 100 µM | TGI (RXF 393 renal): > 100 µM | TGI (HL-60(TB) leukemia): > 100 µM

C[N+]1=c2c3cccc4cccc(c(=O)n2CC1)c43
TGI (SK-OV-3 ovarian): 93.8 µM | TGI (786-0 renal): > 100 µM | TGI (OVCAR-3 ovarian): 79.8 µM | TGI (A498 renal): 30.9 µM | TGI (A549 NSCLC): 53 µM | TGI (RXF 393 renal): 25.5 µM | TGI (HL-60(TB) leukemia): 46.3 µM

COc1ccc(-c2c(C)c(C(=O)O)nc(-c3ccc4c(O)c(OC)c5c(c4n3)=NC(C)(C)N=5)c2N)c(O)c1OC
TGI (SK-OV-3 ovarian): 65.6 µM | TGI (786-0 renal): 31.6 µM | TGI (OVCAR-3 ovarian): 43.2 µM | TGI (A549 NSCLC): 55.5 µM | TGI (BT-549 breast): 82.7 µM | TGI (RXF 393 renal): 51.7 µM | TGI (MCF7 breast): > 100 µM | TGI (HL-60(TB) leukemia): 37.1 µM | TGI (MDA-MB-231 breast): > 100 µM

COc1cc(/C=C/c2ccc(C)cc2)cc(OC)c1OC
TGI (SK-OV-3 ovarian): 39 µM | TGI (786-0 renal): 36.6 µM | TGI (OVCAR-3 ovarian): 6.93 µM | TGI (A549 NSCLC): 70.1 µM | TGI (BT-549 breast): 19 µM | TGI (MCF7 breast): 45.3 µM | TGI (HL-60(TB) leukemia): 21.9 µM | TGI (MDA-MB-231 breast): > 100 µM
